According to ChEMBL document CHEMBL4699477, “Tricyclic sulfones as potent, selective and efficacious RORγt inverse agonists - Exploring C6 and C8 SAR using late-stage functionalization” (Bioorg Med Chem Lett, 2020):
Values after ≈ are worked out from the molar mass of the structure shown.

What was measured:
[1] = Metabolic stability in cynomolgous monkey liver microsomes assessed as half life; assay type: ADME, Macaca fascicularis, Microsome; settings: cynomolgus monkey
[2] = Total AUC in cynomolgus monkey at 2 mg/kg, po; assay type: ADME, organism-based, Macaca fascicularis; set-up: route oral, time AUCmax, dose 2 mg/kg; settings: in vivo
[3] = Clearance in cynomolgus monkey at 1 mg/kg, iv; assay type: ADME, organism-based, Macaca fascicularis; settings: in vivo
[4] = Total AUC in dog at 2 mg/kg, po; assay type: ADME, organism-based, Canis lupus familiaris; set-up: time AUCmax, route oral, dose 2 mg/kg; settings: in vivo
[5] = Total AUC in BALB/c mouse at 4 mg/kg, po; assay type: ADME, organism-based; set-up: time AUCmax, route oral, dose 4 mg/kg; settings: in vivo
[6] = Clearance in BALB/c mouse at 2 mg/kg, iv; assay type: ADME, organism-based; settings: in vivo
[7] = Cmax in cynomolgus monkey at 2 mg/kg, po; assay type: ADME, organism-based, Macaca fascicularis; set-up: route oral, dose 2 mg/kg; settings: in vivo
[8] = Total AUC in BALB/c mouse at 2 mg/kg, iv; assay type: ADME, organism-based; set-up: route intravenous, time AUCmax, dose 2 mg/kg; settings: in vivo
[9] = Metabolic stability in rat liver microsomes assessed as half life; assay type: ADME, Microsome
[10] = Fraction unbound in mouse plasma; assay type: ADME, cell-free
[11] = Clearance in dog at 1 mg/kg, iv; assay type: ADME, organism-based, Canis lupus familiaris; settings: in vivo
[12] = biological target: T1, Oxysterols receptor LXR-beta (Homo sapiens, UniProt P55055); assay: Inverse agonist activity of LXRbeta (unknown origin)
T1 sequence (P55055 whole entry): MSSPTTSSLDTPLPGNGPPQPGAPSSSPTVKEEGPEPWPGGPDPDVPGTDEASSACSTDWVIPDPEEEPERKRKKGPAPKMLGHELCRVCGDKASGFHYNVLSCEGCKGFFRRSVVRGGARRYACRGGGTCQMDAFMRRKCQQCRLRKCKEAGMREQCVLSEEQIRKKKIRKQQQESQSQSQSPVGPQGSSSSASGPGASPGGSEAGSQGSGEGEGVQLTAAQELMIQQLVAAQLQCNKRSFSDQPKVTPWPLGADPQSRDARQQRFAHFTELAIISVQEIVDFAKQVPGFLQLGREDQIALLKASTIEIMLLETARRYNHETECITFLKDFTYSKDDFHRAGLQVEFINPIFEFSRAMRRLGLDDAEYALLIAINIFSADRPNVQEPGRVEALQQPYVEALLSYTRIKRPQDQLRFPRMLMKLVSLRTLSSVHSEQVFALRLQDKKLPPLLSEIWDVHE

[13] = Solubility of compound at pH 1; assay type: physicochemical; settings: buffer
[14] = Total AUC in rat at 2 mg/kg, iv; assay type: ADME, organism-based; set-up: time AUCmax, route intravenous, dose 2 mg/kg; settings: in vivo
[15] = Half life in rat at 2 mg/kg, iv; assay type: ADME, organism-based; settings: in vivo
[16] = biological target: Voltage-gated inwardly rectifying potassium channel KCNH2 (Homo sapiens, UniProt Q12809); assay: Inhibition of human ERG by patch clamp assay
Voltage-gated inwardly rectifying potassium channel KCNH2, sequence (Q12809 whole entry): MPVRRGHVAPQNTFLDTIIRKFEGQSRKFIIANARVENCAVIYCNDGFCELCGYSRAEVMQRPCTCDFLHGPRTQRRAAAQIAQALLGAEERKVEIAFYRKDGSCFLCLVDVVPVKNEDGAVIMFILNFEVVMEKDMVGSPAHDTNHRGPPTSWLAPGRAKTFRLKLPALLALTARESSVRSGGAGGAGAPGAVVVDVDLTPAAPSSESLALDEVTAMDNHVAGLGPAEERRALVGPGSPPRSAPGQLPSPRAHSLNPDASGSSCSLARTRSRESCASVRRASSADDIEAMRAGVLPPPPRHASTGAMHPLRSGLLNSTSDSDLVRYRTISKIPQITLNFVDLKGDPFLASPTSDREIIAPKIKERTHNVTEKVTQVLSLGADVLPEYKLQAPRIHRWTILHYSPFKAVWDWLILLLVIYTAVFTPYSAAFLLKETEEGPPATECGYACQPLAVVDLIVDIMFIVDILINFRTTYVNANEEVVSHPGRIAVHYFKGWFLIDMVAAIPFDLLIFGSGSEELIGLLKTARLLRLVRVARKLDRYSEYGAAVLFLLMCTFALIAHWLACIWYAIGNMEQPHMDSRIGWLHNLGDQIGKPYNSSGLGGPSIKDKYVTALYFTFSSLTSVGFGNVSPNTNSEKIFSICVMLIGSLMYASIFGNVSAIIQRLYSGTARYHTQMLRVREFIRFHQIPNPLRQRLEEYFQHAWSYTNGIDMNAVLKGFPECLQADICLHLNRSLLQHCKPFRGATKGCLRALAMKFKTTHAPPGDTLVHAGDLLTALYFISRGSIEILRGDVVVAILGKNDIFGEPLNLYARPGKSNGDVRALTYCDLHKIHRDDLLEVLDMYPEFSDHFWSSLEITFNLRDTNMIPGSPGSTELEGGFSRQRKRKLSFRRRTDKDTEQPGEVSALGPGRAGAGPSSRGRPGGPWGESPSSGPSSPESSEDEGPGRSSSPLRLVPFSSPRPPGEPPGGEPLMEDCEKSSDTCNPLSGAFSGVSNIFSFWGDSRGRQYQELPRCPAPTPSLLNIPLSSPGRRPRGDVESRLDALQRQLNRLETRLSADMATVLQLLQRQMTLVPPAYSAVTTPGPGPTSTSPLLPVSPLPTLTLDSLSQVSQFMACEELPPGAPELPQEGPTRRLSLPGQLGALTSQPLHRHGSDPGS

[17] = Metabolic stability in human liver microsomes assessed as half life; assay type: ADME, Microsome
[18] = biological target: Cytochrome P450 2D6 (Homo sapiens, UniProt P10635); assay: Inhibition of recombinant CYP2D6 (unknown origin); assay type: ADME
Cytochrome P450 2D6, sequence (P10635 whole entry): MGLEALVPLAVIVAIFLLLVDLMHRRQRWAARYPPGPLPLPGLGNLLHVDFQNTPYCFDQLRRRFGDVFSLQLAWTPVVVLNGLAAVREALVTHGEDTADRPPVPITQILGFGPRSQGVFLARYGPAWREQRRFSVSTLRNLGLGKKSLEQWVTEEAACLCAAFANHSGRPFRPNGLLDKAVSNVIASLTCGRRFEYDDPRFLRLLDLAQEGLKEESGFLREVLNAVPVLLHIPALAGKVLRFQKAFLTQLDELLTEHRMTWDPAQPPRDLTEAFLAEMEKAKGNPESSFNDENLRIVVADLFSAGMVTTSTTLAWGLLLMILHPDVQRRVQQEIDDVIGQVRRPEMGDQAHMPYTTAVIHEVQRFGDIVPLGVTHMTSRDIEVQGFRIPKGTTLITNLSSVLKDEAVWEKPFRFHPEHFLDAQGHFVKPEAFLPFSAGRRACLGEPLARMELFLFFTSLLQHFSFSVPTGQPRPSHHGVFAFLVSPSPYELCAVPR

[19] = Metabolic stability in dog liver microsomes assessed as half life; assay type: ADME, Canis lupus familiaris, Microsome
[20] = Clearance in rat at 2 mg/kg, iv; assay type: ADME, organism-based; settings: in vivo
[21] = biological target: T2, Nuclear receptor ROR-beta (Homo sapiens, UniProt Q92753); assay: Inhibition of GAL4-fused RORbeta (unknown origin)
T2 sequence (Q92753 whole entry): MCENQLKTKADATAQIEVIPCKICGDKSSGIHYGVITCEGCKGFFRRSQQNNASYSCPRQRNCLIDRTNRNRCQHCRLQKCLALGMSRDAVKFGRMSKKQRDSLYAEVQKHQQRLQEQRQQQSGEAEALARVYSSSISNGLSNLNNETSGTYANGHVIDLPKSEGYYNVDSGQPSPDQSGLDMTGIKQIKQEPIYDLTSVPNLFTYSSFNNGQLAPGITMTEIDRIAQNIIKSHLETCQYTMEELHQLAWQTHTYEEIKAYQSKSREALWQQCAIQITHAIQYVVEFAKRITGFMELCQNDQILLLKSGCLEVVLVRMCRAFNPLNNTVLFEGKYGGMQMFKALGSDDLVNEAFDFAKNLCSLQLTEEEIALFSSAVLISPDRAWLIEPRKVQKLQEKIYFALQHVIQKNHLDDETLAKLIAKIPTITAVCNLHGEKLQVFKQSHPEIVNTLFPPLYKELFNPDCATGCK

[22] = Volume of distribution at steady state in rat at 2 mg/kg, iv; assay type: ADME, organism-based; settings: in vivo, read-out: Vdss
[23] = biological target: T3, Nuclear receptor ROR-gamma (Mus musculus, UniProt P51450); assay: Inverse agonist activity at RORgammat in mouse Th17 cells; assay type: cell-based
T3 sequence (P51450 whole entry): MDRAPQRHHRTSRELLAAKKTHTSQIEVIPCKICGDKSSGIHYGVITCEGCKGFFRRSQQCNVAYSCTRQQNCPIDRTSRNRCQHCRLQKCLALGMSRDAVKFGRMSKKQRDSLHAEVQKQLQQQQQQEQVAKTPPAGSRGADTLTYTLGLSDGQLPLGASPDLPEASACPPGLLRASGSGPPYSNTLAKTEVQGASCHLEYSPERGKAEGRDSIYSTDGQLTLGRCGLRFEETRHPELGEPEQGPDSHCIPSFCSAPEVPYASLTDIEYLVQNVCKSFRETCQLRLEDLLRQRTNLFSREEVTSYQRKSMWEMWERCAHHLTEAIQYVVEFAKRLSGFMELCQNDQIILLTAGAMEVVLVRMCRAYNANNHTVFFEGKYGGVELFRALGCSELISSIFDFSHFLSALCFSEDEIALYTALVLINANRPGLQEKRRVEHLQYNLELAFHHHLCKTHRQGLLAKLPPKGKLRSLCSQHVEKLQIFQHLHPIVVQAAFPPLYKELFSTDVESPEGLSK

[24] = biological target: Cytochrome P450 3A4 (Homo sapiens, UniProt P08684); assay: Inhibition of recombinant CYP3A4 (unknown origin); assay type: ADME
Cytochrome P450 3A4, sequence (P08684 whole entry): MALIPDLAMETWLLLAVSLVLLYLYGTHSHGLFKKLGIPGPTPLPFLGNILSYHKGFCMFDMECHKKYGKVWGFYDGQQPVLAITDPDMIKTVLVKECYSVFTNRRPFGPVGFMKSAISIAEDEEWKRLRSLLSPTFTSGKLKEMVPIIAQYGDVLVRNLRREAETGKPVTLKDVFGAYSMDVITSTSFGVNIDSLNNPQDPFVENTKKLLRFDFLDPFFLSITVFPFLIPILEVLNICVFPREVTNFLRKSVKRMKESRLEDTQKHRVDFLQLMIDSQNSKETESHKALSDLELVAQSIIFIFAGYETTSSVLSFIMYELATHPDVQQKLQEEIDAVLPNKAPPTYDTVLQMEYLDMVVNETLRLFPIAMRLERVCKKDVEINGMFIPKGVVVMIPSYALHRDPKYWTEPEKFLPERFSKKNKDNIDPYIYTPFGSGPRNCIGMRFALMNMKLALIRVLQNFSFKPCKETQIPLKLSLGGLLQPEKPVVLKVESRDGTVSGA

[25] = Solubility of compound at pH 7.4; assay type: physicochemical; settings: buffer
[26] = Fraction unbound in human plasma; assay type: ADME, cell-free
[27] = biological target: T4, Nuclear receptor ROR-alpha (Homo sapiens, UniProt P35398); assay: Inhibition of GAL4-fused RORalpha (unknown origin)
T4 sequence (P35398 whole entry): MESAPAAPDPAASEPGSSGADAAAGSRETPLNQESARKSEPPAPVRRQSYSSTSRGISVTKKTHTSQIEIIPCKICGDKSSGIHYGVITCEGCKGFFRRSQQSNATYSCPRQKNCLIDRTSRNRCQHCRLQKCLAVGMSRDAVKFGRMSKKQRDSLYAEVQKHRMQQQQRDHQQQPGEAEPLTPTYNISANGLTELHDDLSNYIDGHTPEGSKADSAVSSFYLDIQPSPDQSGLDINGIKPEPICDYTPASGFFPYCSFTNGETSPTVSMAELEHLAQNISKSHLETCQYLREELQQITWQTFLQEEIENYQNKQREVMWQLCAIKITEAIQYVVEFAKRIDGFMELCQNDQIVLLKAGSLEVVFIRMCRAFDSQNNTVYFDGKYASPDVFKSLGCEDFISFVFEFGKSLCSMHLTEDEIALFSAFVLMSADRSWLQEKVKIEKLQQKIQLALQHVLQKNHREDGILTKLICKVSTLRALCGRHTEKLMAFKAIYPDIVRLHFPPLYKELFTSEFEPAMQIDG

[28] = Metabolic stability in mouse liver microsomes assessed as half life; assay type: ADME, Microsome

Compound C[C@H]1C[C@H](C(=O)O)CC[C@H]1C(=O)N1CC[C@@]2(S(=O)(=O)c3ccccc3)c3cc(F)c(C(F)(C(F)(F)F)C(F)(F)F)cc3CC[C@@H]12 has a half-life [1] of over 2 h, an AUC [2] of 55 µM·h and a clearance [3] of 0.066 L/h/kg. The AUC [4] was 144 µM·h, the AUC [5] was 39 µM·h and the clearance [6] was 0.15 L/h/kg. It also gave a Cmax [7] of 3.9 µM, an AUC [8] of 20 µM·h and a half-life [9] of over 2 h. The fraction unbound [10] was 0.016, the clearance [11] was 0.018 L/h/kg and the EC50 [12] was over 7.5 µM. It also gave a solubility [13] of 0.0014 mg/mL (≈ 2.1 µM), an AUC [14] of 20 µM·h and a half-life [15] of 5.8 h. The IC50 [16] was 18 µM, the half-life [17] was over 2 h and the IC50 [18] was over 20 µM. For the same compound, the half-life [19] was over 2 h, the clearance [20] was 0.156 L/h/kg and the EC50 [21] was over 10 µM. For the same compound, the Vd [22] was 1.3 L/kg, the EC50 [23] was 0.002 µM and the IC50 [24] was over 20 µM. The solubility [25] was 1.6 mg/mL (≈ 2400 µM), the fraction unbound [26] was 0.012 and the EC50 [27] was over 10 µM. The half-life [28] was over 2 h.
